Test results as given in patent US4902720A (priority 1988, dated 1990).
Like-named read-outs stand apart in the source and are kept apart here.

Legend:
[1] = test system: RK-13, Vero cells, and WISH cells; settings: cultures with vs without TEAC
Protocol: To determine the toxicity level of the drug, all three cell lines--RK-13, Vero cells, and WISH cells--were used. In the toxicity experiments, the effect of the drug on the uninfected cell for a range of periods of time was determined. Accordingly, cultures were incubated with and without the drug. The time of exposure was from one to seven hours. A comparison was then made between the drug treated cultures and the control cultures. After each period of incubation, the cells were washed and fresh media was added to the cells. The cell viability was then determined by dividing these cultures and having them grow into new cell cultures.

HSV-2 (333 strain) = settings: for % plaque inhibition: 2 hours pre-incubation
Protocol: In Series No. 1 of Example No. 1, monolayer cultures of Vero, RK-13 (rabbit kidney), and WISH (human amnion, Hayflick) cells were used in the experiments of Example No. 1. The cells were grown in Basal Minimal Eagle's Media supplemented with 5% fetal calf serum, 1% glutamine, sodium bicarbote and antibiotics. Cultures were maintained in a maintenance media that was the same media, except that the maintenance media contained 2% fetal calf serum. An F Strain of HSV-1 was chosen because it is a well-known prototype of HSV-1. This F Strain can be obtained from the American Type Culture Collection (ATCC), 12301 Parklawn Drive, Rockville, MD 20852, at which it is identified as ATC-VR 733. For studies with HSV-2, a G strain of HSV-2 (ATCC-VR 734) and a 333 strain of HSV-2 were selected. These strains also can be obtained from the ATCC.
Two methods were used to test the drug's effectiveness in the suppression of viral growth. In the pre-inoculation experiments, the drug was added after adsorption of the virus. In the pre-incubation experiments, the drug was added prior to infection of the cell cultures.
Accordingly, the pre-inoculation experiments measured the effect of the drug on a cell that was already infected with the virus. The pre-incubation experiments measured the cell cultures that were treated with the drug prior to the inoculation to determine if these cells then would be permissive or non-permissive to the tested virus. In these experiments, plaque reduction assays provided a quantitative measure of antiviral activity and was deemed to be reliable and objective.
In the pre-incubation experiments, the media was either decanted or gently aspirated from the cultures. After decanting or aspirating, 1 ml of the drug dilution plus maintenance media was added to the cultures. The cultures that served as virus controls or cell controls received 2 ml of maintenance media. After the pre-treatment period, the media was again aspirated and the cell cultures were infected with the virus.
When this occurred, the cultures were fixed and stained with crystal violet. The plaque were then carefully counted under the microscope. By such a counting and careful comparison, percentages of plaque inhibition in the treated cultures were then calculated.
The 333 strain, which can be obtained from ATCC, was used.

HSV-1 (McKrae strain) [2] = settings: for No. of Plaques: virus controls 270, 270, 252
Protocol: All cultures were incubated at 37° C. in a 5% CO2 humidified atmosphere. The cultures were stained with crystal violet to aid in counting the plaque.

HSV-1 (McKrae strain) [3] = settings: 20 mg/ml
Protocol: In experiment 1K, cultures were infected with the McKrae strain of HSV-1 at a high multiplicity of infection. […] At designated times, the cultures were harvested. The supernatant fluid and the cells were kept separate to assay for viruses released in the supernatant fluid and also that present in the cells. Both supernatant fluid and the cells were frozen immediately at -85° C. These samples were then assayed for infectious particles on susceptible cells.

HSV-1 (F strain) [4] = settings: 2.5 mg/ml TEAC
HSV-1 (F strain) [5] = settings: for % plaque inhibition: drug added after inoculation; for appearance of cell layer / % plaque inhibition A: Exp. 1D; for appearance of cell layer: after virus adsorption, thin = attached but monolayer not confluent; for % plaque inhibition A: drug added after virus adsorption
HSV-1 (McKrae strain) [6] = settings: Virus and Drug (20 mg/ml)
HSV-1 (McKrae strain) [7] = test system: HSV-1 (McKrae strain)
HSV-1 = test: microbe, parasite or virus in culture; settings: read-out: % Reduction

SMILES: CC[N+](CC)(CC)CC.[Cl-] [TEAC, tetraethylammonium chloride]
- rate of growth vs cultures without TEAC [1]: no difference in the rate of growth
- % plaque inhibition (HSV-2 (333 strain); 6.25 mg/culture): 0%
- % plaque inhibition (HSV-2 (333 strain); 12.50 mg/culture): 25%
- % plaque inhibition (HSV-2 (333 strain); 25.00 mg/culture): 42%
- % plaque inhibition (HSV-2 (333 strain); 50.00 mg/culture): 56%
- sensitivity of HSV-2 (333 strain) to TEAC vs HSV-1 (HSV-2 (333 strain); based on Table 6): even more sensitive to TEAC than HSV-1
- No. of Plaques (HSV-1 (McKrae strain) [2]; 3.125 mg/ml): 247
- No. of Plaques (HSV-1 (McKrae strain) [2]; 6.250 mg/ml): 286
- No. of Plaques (HSV-1 (McKrae strain) [2]; 12.500 mg/ml): 300
- appearance of monolayer (HSV-1 (McKrae strain) [2]; 25 mg/ml): thinned out appearance
- No. of Plaques (HSV-1 (McKrae strain) [2]; 25.000 mg/ml): 0
- effectiveness in plaque inhibition (HSV-1 (McKrae strain) [2]; concentrations below 25 mg/ml): not significantly effective in achieving plaque inhibition
- virus yield, supernatant (HSV-1 (McKrae strain) [3]; 6 hours P.I., dilution 10^-1, control 3): 0 PFU/m
- virus yield, cell (HSV-1 (McKrae strain) [3]; 6 hours P.I., dilution 10^-1, control 7): 2 PFU/m
- virus yield, supernatant (HSV-1 (McKrae strain) [3]; 6 hours P.I., dilution 10^-2, control 1): 0 PFU/m
- virus yield, cell (HSV-1 (McKrae strain) [3]; 6 hours P.I., dilution 10^-2, control 7): 5 PFU/m
- virus yield, supernatant (HSV-1 (McKrae strain) [3]; 6 hours P.I., dilution 10^-3, control 0): 0 PFU/m
- virus yield, cell (HSV-1 (McKrae strain) [3]; 6 hours P.I., undiluted (Und.), control 16): 12 PFU/m
- virus yield, cell (HSV-1 (McKrae strain) [3]; 10 hours P.I., dilution 10^-1, control 12): 3 PFU/m
- virus yield, supernatant (HSV-1 (McKrae strain) [3]; 10 hours P.I., dilution 10^-1, control 22): 0 PFU/m
- virus yield, cell (HSV-1 (McKrae strain) [3]; 10 hours P.I., dilution 10^-2, control 2): 0 PFU/m
- virus yield, supernatant (HSV-1 (McKrae strain) [3]; 10 hours P.I., dilution 10^-2, control 7): 0 PFU/m
- virus yield, supernatant (HSV-1 (McKrae strain) [3]; 10 hours P.I., dilution 10^-3, control 0): 0 PFU/m
- virus yield, cell (HSV-1 (McKrae strain) [3]; 10 hours P.I., undiluted (Und.), control 48): 13 PFU/m
- virus yield, supernatant (HSV-1 (McKrae strain) [3]; 20 hours P.I., dilution 10^-1, control 91): 0 PFU/m
- virus yield, cell (HSV-1 (McKrae strain) [3]; 20 hours P.I., dilution 10^-1, control W.O. (wiped out)): 5 PFU/m
- virus yield, supernatant (HSV-1 (McKrae strain) [3]; 20 hours P.I., dilution 10^-2, control 10): 0 PFU/m
- virus yield, cell (HSV-1 (McKrae strain) [3]; 20 hours P.I., dilution 10^-2, control W.O. (wiped out)): 0 PFU/m
- virus yield, supernatant (HSV-1 (McKrae strain) [3]; 20 hours P.I., dilution 10^-3, control 0): 0 PFU/m
- virus yield, cell (HSV-1 (McKrae strain) [3]; 20 hours P.I., undiluted (Und.), control W.O. (wiped out)): 42 PFU/m
- virus yield, supernatant (HSV-1 (McKrae strain) [3]; 24 hours P.I., dilution 10^-1, control 107): 0 PFU/m
- virus yield, cell (HSV-1 (McKrae strain) [3]; 24 hours P.I., dilution 10^-1, control W.O. (wiped out)): 32 PFU/m
- virus yield, supernatant (HSV-1 (McKrae strain) [3]; 24 hours P.I., dilution 10^-2, control 18): 0 PFU/m
- virus yield, cell (HSV-1 (McKrae strain) [3]; 24 hours P.I., dilution 10^-2, control W.O. (wiped out)): 10 PFU/m
- virus yield, supernatant (HSV-1 (McKrae strain) [3]; 24 hours P.I., dilution 10^-3, control 2): 0 PFU/m
- virus yield, cell (HSV-1 (McKrae strain) [3]; 24 hours P.I., undiluted (Und.), control W.O. (wiped out)): 58 PFU/m
- virus yield, supernatant (HSV-1 (McKrae strain) [3]; 28 hours P.I., dilution 10^-1, control 190): 0 PFU/m
- virus yield, cell (HSV-1 (McKrae strain) [3]; 28 hours P.I., dilution 10^-1, control W.O.): TMTC
- virus yield, supernatant (HSV-1 (McKrae strain) [3]; 28 hours P.I., dilution 10^-2, control 58): 0 PFU/m
- virus yield, cell (HSV-1 (McKrae strain) [3]; 28 hours P.I., dilution 10^-2, control W.O. (wiped out)): 15 PFU/m
- virus yield, supernatant (HSV-1 (McKrae strain) [3]; 28 hours P.I., dilution 10^-3, control 7): 0 PFU/m
- virus yield, cell (HSV-1 (McKrae strain) [3]; 28 hours P.I., undiluted (Und.), control W.O.): W.O.
- change in the morphology of the cells (Vero and WISH cells; 5 mg, 2.5 mg and 1.25 mg TEAC per culture, overnight): No change in the morphology of the cells
- growth or general appearance vs untreated controls (Vero and WISH cells; after wash, additional 24 hours in fresh medium): no apparent difference in the growth or general appearance
- size of the plaque vs control (HSV-1 (F strain) [4]): appreciably smaller
- average number of plaque (HSV-1 (F strain) [4]; 1 ml + 4 ml media, after adsorption, control 488.5): 75.5 plaque
- antiviral activity (HSV-1 (F strain) [5]; Exp. 1C, all dilutions tested): Antiviral activity was seen in all dilutions tested
- % plaque inhibition (HSV-1 (F strain) [5]; Exp. 1C, 0.62 mg/culture): 30%
- % plaque inhibition (HSV-1 (F strain) [5]; Exp. 1C, 1.25 mg/culture): 39%
- % plaque inhibition (HSV-1 (F strain) [5]; Exp. 1C, 2.50 mg/culture): 46%
- % plaque inhibition (HSV-1 (F strain) [5]; Exp. 1C, 5.00 mg/culture): 45%
- % plaque inhibition (HSV-1 (F strain) [5]; Exp. 1C, 10.00 mg/culture): 56%
- appearance of cell layer (HSV-1 (F strain) [5]; 25 mg/culture): thin
- appearance of cell layer (HSV-1 (F strain) [5]; 50 mg/culture): thin
- % plaque inhibition A (HSV-1 (F strain) [5]; 6.2 mg/culture): 20%
- % plaque inhibition A (HSV-1 (F strain) [5]; 12.5 mg/culture): 62%
- % plaque inhibition A (HSV-1 (F strain) [5]; 25.0 mg/culture, cell layer thin): 100%
- % plaque inhibition A (HSV-1 (F strain) [5]; 50.0 mg/culture, cell layer thin): 100%
- cells exhibiting CPE, area of infection per field (HSV-1 (McKrae strain) [6]; 6 hours P.I., virus control 1/4): 1/6
- cells exhibiting CPE, area of infection per field (HSV-1 (McKrae strain) [6]; 30 hours P.I., virus control 1/2): scattered
- number of cells containing intranuclear dense bodies vs control (HSV-1 (McKrae strain) [7]; 6 hours post infection): no striking difference
- No. of cells with internuclear dense bodies (HSV-1 (McKrae strain) [7]; TEAC treated, 24 hours P.I., 300 cells examined, control 0 of 50): 12
- No. of cells with virus particles (HSV-1 (McKrae strain) [7]; TEAC treated, 24 hours P.I., 300 cells examined, control 50 of 50): 8
- Total % (HSV-1 (McKrae strain) [7]; TEAC treated, 24 hours P.I., control 100%): 6%
- size of nucleocapsids (HSV-1 (McKrae strain) [7]; TEAC-treated cells, 24 hours post infection): about 99.6 A
- crusting (HSV type 1; Patient L, 2.9 cc (5.5 mg/kg), 7th day after treatment): the crusting had all disappeared
- time to clearing of lesions (HSV type 1; Patient M, 1% TEAC in hydrophillic ointment base, topical, five days later): cleared in a shorter time period than usual
- lesion (HSV type 1; Patient M, ointment resumed two months later, after three days): the lesion had not spread and had now crusted
- inhibition at 20000 µg/mL (HSV-1; Human alphaherpesvirus 1, 4 h): 25%
- inhibition at 20000 µg/mL (HSV-1; Human alphaherpesvirus 1, 6 h): 57%
- inhibition at 20000 µg/mL (HSV-1; Human alphaherpesvirus 1, 8 h): 69%
- inhibition at 20000 µg/mL (HSV-1; Human alphaherpesvirus 1, 10 h): 88%
